Laboratory results reported in US8895585B2, “Nicotinamide derivative or salt thereof” (FUJIFILM Corporation, priority 2010, dated 2014).

Molecular target: T1, glutathione S-transferase (GST)-fused full-length human Syk protein (Homo sapiens, UniProt P43405)
T1 construct: (GST)-fused full-length human Syk protein; GST (glutathione S-transferase); purchased Carna Biosciences
Experiment: Syk enzyme assay
Type: biochemical
Settings: Syk enzyme assay, Test Example 1; read-out: IC50 of Syk-inhibitory activity
Description: A glutathione S-transferase (GST)-fused full-length human Syk protein (Carna Biosciences), which had been generated using a Baculovirus expression system, was used in the Syk enzyme assay.
15 μl of a reaction solution (1.2 ng Syk, 20 mM HEPES, 10 mM MgCl2, 50 mM NaCl, 2 mM DTT, 0.05% BSA, pH 7.0) containing a Syk protein and a predetermined concentration of a test compound was shaken for 2 minutes, and it was then left at rest at room temperature for 13 minutes. Thereafter, 5 μl of Biotin-EDPDYEWPSA-NH2 (final concentration: 0.4 μM) serving as a substrate peptide and 5 μl of ATP (final concentration: 27 μM) were added to the reaction solution, and the obtained mixture was then shaken for 2 minutes. The reaction solution was further left at rest at room temperature for 40 minutes, so as to carry out an enzyme reaction.
Thereafter, 50 μl of a reaction termination solution [5 μg/ml Streptavidin, 0.18 μg/ml PT66-K, 30 mM HEPES (pH 7.0), 150 mM KF, 75 mM EDTA, 0.15% BSA, 0.075% Tween20], which contained Streptavidin-Xlent (Cisbio) and Mab PT66-K (Cisbio), was added to the reaction solution to terminate the enzyme reaction. At the same time, the reaction solution was left at rest at room temperature for 1 hour, so as to carry out an antigen-antibody reaction. Thereafter, using EnVision (PerkinElmer), the time-resolved fluorescence was measured at 615 nm and 665 nm, so that the phosphorylation of the substrate peptide was measured.
In addition, the following are standards for evaluating IC50 of Syk-inhibitory activity used in Table 21. • A: Up to 10 nM • B: 10 to 50 nM • C: 50 to 100 nM • D: 100 to 1000 nM The set of numbers (XYZ-xyz) given in each Example number column indicates the corresponding Example number (Example XYZ-xyz) in Table 21.

| IC50 [nM] | Structure (SMILES) |
| --- | --- |
| < 10 | NC(=O)c1cc(F)c(N[C@H](c2ccccc2)[C@@H](N)c2ccccc2)nc1Nc1ccc2ncccc2c1 (racemic) [Example 006-135, 6-(((1R,2S)-2-amino-1,2-diphenylethyl)amino)-5-fluoro-2-(quinolin-6-ylamino)nicotinamide 6-(((1S,2R)-2-amino-1,2-diphenylethyl)amino)-5-fluoro-2-(quinolin-6-ylamino)nicotinamide] |
| < 10 | Cn1ncc2cc(Nc3nc(N[C@H](c4ccccc4)[C@@H](N)c4ccccc4)c(F)cc3C(N)=O)ccc21 (racemic) [Example 006-136, 6-(((1R,2S)-2-amino-1,2-diphenylethyl)amino)-5-fluoro-2-((1-methyl-1H-indazol-5-yl)amino)nicotinamide 6-(((1S,2R)-2-amino-1,2-diphenylethyl)amino)-5-fluoro-2-((1-methyl-1H-indazol-5-yl)amino)nicotinamide] |
| 10 to 50 | COc1cc(Nc2nc(N[C@H](c3ccccc3)[C@@H](N)c3ccccc3)c(F)cc2C(N)=O)cc(OC)c1 (racemic) [Example 006-137, 6-(((1R,2S)-2-amino-1,2-diphenylethyl)amino)-2-((3,5-dimethoxyphenyl)amino)-5-fluoronicotinamide 6-(((1S,2R)-2-amino-1,2-diphenylethyl)amino)-2-((3,5-dimethoxyphenyl)amino)-5-fluoronicotinamide] |
| 10 to 50 | NC(=O)c1cc(F)c(N[C@H](c2ccccc2)[C@@H](N)c2ccccc2)nc1Nc1cccc(-n2nccn2)c1 (racemic) [Example 006-138, 2-((3-(2H-1,2,3-triazol-2-yl)phenyl)amino)-6-(((1R,2S)-2-amino-1,2-diphenylethyl)amino)-5-fluoronicotinamide 2-((3-(2H-1,2,3-triazol-2-yl)phenyl)amino)-6-(((1S,2R)-2-amino-1,2-diphenylethyl)amino)-5-fluoronicotinamide] |
| 50 to 100 | Cc1cncc(Nc2nc(N[C@H](c3ccccc3)[C@@H](N)c3ccccc3)c(F)cc2C(N)=O)c1 (racemic) [Example 006-140, 6-(((1R,2S)-2-amino-1,2-diphenylethyl)amino)-5-fluoro-2-((5-methylpyridin-3-yl)amino)nicotinamide 6-(((1S,2R)-2-amino-1,2-diphenylethyl)amino)-5-fluoro-2-((5-methylpyridin-3-yl)amino)nicotinamide] |
| 100 to 1000 | NC(=O)c1cc(F)c(N[C@H](c2ccccc2)[C@@H](N)c2ccccc2)nc1Nc1ccc2cccnc2c1 (racemic) [Example 006-141, 6-(((1R,2S)-2-amino-1,2-diphenylethyl)amino)-5-fluoro-2-(quinolin-7-ylamino)nicotinamide 6-(((1S,2R)-2-amino-1,2-diphenylethyl)amino)-5-fluoro-2-(quinolin-7-ylamino)nicotinamide] |
| < 10 | COCCOc1ccc2cc(Nc3nc(N[C@H](C)[C@H](C)N)c(F)cc3C(N)=O)cnc2c1 (racemic) [Example 006-183, 6-(((2R,3S)-3-aminobutan-2-yl)amino)-5-fluoro-2-((7-(2-methoxyethoxy)quinolin-3-yl)amino)nicotinamide 6-(((2S,3R)-3-aminobutan-2-yl)amino)-5-fluoro-2-((7-(2-methoxyethoxy)quinolin-3-yl)amino)nicotinamide] |
| 10 to 50 | C[C@H](N)[C@@H](C)Nc1nc(Nc2ccnc(-n3nccn3)c2)c(C(N)=O)cc1F (racemic) [Example 006-189, 2-((2-(2H-1,2,3-triazol-2-yl)pyridin-4-yl)amino)-6-(((2R,3S)-3-aminobutan-2-yl)amino)-5-fluoronicotinamide 2-((2-(2H-1,2,3-triazol-2-yl)pyridin-4-yl)amino)-6-(((2S,3R)-3-aminobutan-2-yl)amino)-5-fluoronicotinamide] |
| 10 to 50 | COCCn1ncc2cc(Nc3nc(N[C@H](C)[C@H](C)N)c(F)cc3C(N)=O)ccc21 (racemic) [Example 006-197, 6-(((2R,3S)-3-aminobutan-2-yl)amino)-5-fluoro-2-((1-(2-methoxyethyl)-1H-indazol-5-yl)amino)nicotinamide 6-(((2S,3R)-3-aminobutan-2-yl)amino)-5-fluoro-2-((1-(2-methoxyethyl)-1H-indazol-5-yl)amino)nicotinamide] |
| 10 to 50 | CC(=O)Nc1cc(Nc2nc(N[C@@H]3CCCC[C@@H]3N)c(F)cc2C(N)=O)ccn1 (relative stereo) [Example 004-048] |
| 10 to 50 | CN1CCN(c2cncc(Nc3nc(N[C@@H]4CCCC[C@@H]4N)c(F)cc3C(N)=O)c2)CC1 (relative stereo) [Example 004-052] |
| < 10 | Cc1cc(Nc2nc(N[C@@H]3CCCC[C@@H]3N)c(F)cc2C(N)=O)cs1 (relative stereo) [Example 004-057] |
| < 10 | NC(=O)c1cc(F)c(N[C@@H]2CCCC[C@@H]2N)nc1Nc1cc(N2CCOCC2)nc2[nH]ccc12 (relative stereo) [Example 004-066, 6-(cis-2-aminocyclohexylamino)-5-fluoro-2-((6-morpholino-1H-pyrrolo[2,3-b]pyridin-4-yl)-amino)nicotinamide] |
| < 10 | NC(=O)c1cc(F)c(N[C@@H]2CCCC[C@@H]2N)nc1Nc1cc(-n2nccn2)nc2[nH]ccc12 (relative stereo) [Example 004-067, 2-((6-(2H-1,2,3-triazol-2-yl)-1H-pyrrolo[2,3-b]pyridin-4-yl)amino)-6-(cis-2-aminocyclohexylamino)-5-fluoronicotinamide] |
| < 10 | NC(=O)c1cc(F)c(N[C@@H]2CCCC[C@@H]2N)nc1Nc1ccc2[nH]ccc2c1 (relative stereo) [Example 004-070, 2-((1H-indol-5-yl)amino)-6-(cis-2-aminocyclohexylamino)-5-fluoronicotinamide] |
| < 10 | NC(=O)c1cc(F)c(N[C@@H]2CCCC[C@@H]2N)nc1Nc1cc(F)c2c(ccn2CCN2CCOCC2)c1 (relative stereo) [Example 004-080, 6-(cis-2-aminocyclohexylamino)-5-fluoro-2-((7-fluoro-1-(2-morpholinoethyl)-1H-indol-5-yl)amino)nicotinamide] |
| < 10 | COCCn1ccc2cc(Nc3nc(N[C@@H]4CCCC[C@@H]4N)c(F)cc3C(N)=O)cc(F)c21 (relative stereo) [Example 004-081, 6-(cis-2-aminocyclohexylamino)-5-fluoro-2-((7-fluoro-1-(2-methoxyethyl)-1H-indol-5-yl)-amino)nicotinamide] |
| < 10 | NC(=O)c1cc(F)c(N[C@@H]2CCCC[C@@H]2N)nc1Nc1cc(F)cc2c1ccn2CCN1CCOCC1 (relative stereo) [Example 004-083, 6-(cis-2-aminocyclohexylamino)-5-fluoro-2-((6-fluoro-1-(2-morpholinoethyl)-1H-indol-4-yl)amino)nicotinamide] |

Same assay, conditions: read-out: Syk-inhibitory activity (IC50)

| IC50 [nM] | Structure (SMILES) |
| --- | --- |
| ≤ 1000 | NC(=O)c1cc(F)c(N[C@@H]2CCCC[C@@H]2N)nc1Nc1ccc(-c2ccccc2)nc1 (relative stereo) [Example 2-9, 6-(cis-2-aminocyclohexylamino)-5-fluoro-2-((6-phenylpyridin-3-yl)amino)nicotinamide] |
| ≤ 1000 | COc1ccc(Nc2nc(N[C@@H]3CCCC[C@@H]3N)c(F)cc2C(N)=O)cn1 (relative stereo) [Example 2-10, 6-(cis-2-aminocyclohexylamino)-5-fluoro-2-((6-methoxypyridin-3-yl)amino)nicotinamide] |
